Key:
children and adolescents [1] = assay: Treatment response on Clinical Global Impression-Improvement (CGI-I); assay type: in vivo, human
Method: On the day of blood collection, treatment responses were measured using the Clinical Global Impression (CGI) Scale (Improvement, CGI-I), which clinicians were instructed to rate solely based on the effects of the drug. […] This instrument was specifically designed to quantify the severity of 56 signs of adverse events occurring in pediatric patients under treatment with a psychotropic drug. The 56 items were rated on a Likert scale with 'none', 'slight', 'moderate', 'severe', and 'extremely severe' responses. The maximal severity on any of the items was considered in this study. […] Additionally, indications for the TDM measurement, detailed information on concomitant medications, nicotine use, weight, and height were also recorded. […] All statistical analyses were performed using R (R Foundation for Statistical Computing) version 4.1.1. The alpha level for all analyses was set to 0.05. To maximize the comparability of the conclusions from the dataset generated in this study, the main analyses were performed with both the last valid timepoint, as in previous relevant studies, and with all the valid timepoints, as detailed in the next paragraph. […] In addition to the simple linear regressions, multiple linear regressions were performed with four additional hypothesized predictors: age (years), sex (male/female), body weight (kg), and smoking status (yes/no). The variance inflation factor (VIF) was evaluated as a measure of multicollinearity. Both regressions were compared based upon model fit. Second, proportional odds models using the clm (cumulative link models) function in the 'ordinal' R package were fitted to examine the serum concentrations as predictors of clinical effects (measured by CGI-I) and adverse effects (measured by PAERS-maximal severity). […] The analyses were repeated with an extended set of hypothesized predictors. For CGI-I, these were age, sex, psychotropic co-medication (i.e., antipsychotic and antidepressant drug), and diagnostic comorbidity (i.e., a single diagnosis versus multiple diagnoses). For PAERS, the predictors were age, sex, and psychotropic co-medication. The proportional odds assumptions in these statistics were verified with likelihood ratio tests using the nominal_test and scale_test functions, while model convergence was tested with the convergence function. […] The clmm (cumulative link mixed models) function from the 'ordinal' package was used to test the impact of metabolite level on clinical and adverse effects with CGI-I and […] […] The model with multiple predictors included the variables, as in the single timepoint analyses, as well as the data collection time (i.e., days from the baseline timepoint). To determine a possible concentration threshold of efficacy, receiver operating curve (ROC) analyses were performed based on a binary logistic regression, and the optimal cutoff was calculated by finding an optimal trade-off between sensitivity and specificity. […] The last valid datapoints were included in these analyses as deemed most appropriate. Transdiagnostic responders and responders with depression ([…].X and […].X) were considered separately.

[2] = Steady-state trough serum concentration (TDM, HPLC with UV detection); assay type: in vivo, human; settings: for Est. of Dose on square-root serum concentration, multiple linear regression / Est. of Body weight on square-root serum concentration, multiple linear regression: Model 1, last datapoint, sex, smoking; for Est. of Dose on square-root serum concentration, multiple linear regression: covariates age, body weight; for Est. of Body weight on square-root serum concentration, multiple linear regression: covariates dose, age; for Est. of Body weight on square-root serum concentration, linear mixed effect model / Est. of Dose on square-root serum concentration, linear mixed effect model: Model 2, all datapoints, multiple predictors incl. time; for β of daily dose on square-root serum concentration, linear mixed-effect model: all datapoints, dose as only fixed predictor; for steady-state serum concentration, range / mean steady-state serum concentration, mean (SD): children and adolescents n = 138, last datapoint; for steady-state serum concentration, range: FLX 10–40 mg/day; for mean steady-state serum concentration, mean (SD): FLX 10–40 mg/day (mean 19.93 mg); for β of daily dose (mg) on square-root serum concentration, simple linear regression: last datapoints
Method: The study spanned three different routine healthcare settings, including inpatient, outpatient, and day-treatment units. […] All dosing steps were recorded along with corresponding dates in the medication protocol. […] Depending on the clinical course, additional visit times were possible.
TDM analysis was conducted according to the guidelines of the Working Group on Neuropsychopharmacology and Pharmacopsychiatry (AGNP) consensus. Blood samples were collected from cubital veins into 7.5-mL monovettes without any additives or anticoagulants at a steady-state trough level. The samples were immediately analyzed (in the case of samples from Wuerzburg, Germany) or analyzed after being received by the TDM laboratory in Wuerzburg, Germany, shipped by regular mail. […] Each analytical series included internal quality control samples, and external control samples were analyzed quarterly. The laboratory responsible for the analysis is certified by a quality control program (https://www.instand-ev.de, accessed on 2 July 2023; https://www.ukw.de/psychiatrie/zuweisende-kolleginnen-und-kollegen/tdm-labor/zertifikate/, accessed on 2 July 2023). Analytical grade chemicals and solvents were procured from Sigma-Aldrich Chemie GmbH (Taufkirchen, Germany).
All statistical analyses were performed using R (R Foundation for Statistical Computing) version 4.1.1. The alpha level for all analyses was set to 0.05. To maximize the comparability of the conclusions from the dataset generated in this study, the main analyses were performed with both the last valid timepoint, as in previous relevant studies, and with all the valid timepoints, as detailed in the next paragraph. […] The model assumptions were verified by means of the semi-automated diagnostic functions in the ‘gvlma’ (Global Validation of Linear Models Assumptions) R package, including evaluation of global statistics, skewness, kurtosis, link function, and heteroscedasticity parameters and inspection of the related plots. […] In addition to the simple linear regressions, multiple linear regressions were performed with four additional hypothesized predictors: age (years), sex (male/female), body weight (kg), and smoking status (yes/no). The variance inflation factor (VIF) was evaluated as a measure of multicollinearity. Both regressions were compared based upon model fit. Second, proportional odds models using the clm (cumulative link models) function in the ‘ordinal’ R package were fitted to examine the serum concentrations as predictors of clinical effects (measured by CGI-I) and adverse effects (measured by PAERS—maximal severity). […] The analyses were repeated with an extended set of hypothesized predictors. For CGI-I, these were age, sex, psychotropic co-medication (i.e., antipsychotic and antidepressant drug), and diagnostic comorbidity (i.e., a single diagnosis versus multiple diagnoses). For PAERS, the predictors were age, sex, and psychotropic co-medication. The proportional odds assumptions in these statistics were verified with likelihood ratio tests using the nominal_test and scale_test functions, while model convergence was tested with the convergence function.
The model with multiple predictors included the variables, as in the single timepoint analyses, as well as the data collection time (i.e., days from the baseline timepoint).
To determine a possible concentration threshold of efficacy, receiver operating curve (ROC) analyses were performed based on a binary logistic regression, and the optimal cutoff was calculated by finding an optimal trade-off between sensitivity and specificity.

children and adolescents [3] = assay: Adverse effects on Pediatric Adverse Event Rating Scale (PAERS), maximal severity; assay type: in vivo, human; settings: n = 134 (4 missing); for patients with PAERS max. severity 'none' (no adverse effects): FLX 10–40 mg/day
Method: On the day of blood collection, treatment responses were measured using the Clinical Global Impression (CGI) Scale (Improvement, CGI-I), which clinicians were instructed to rate solely based on the effects of the drug. […] This instrument was specifically designed to quantify the severity of 56 signs of adverse events occurring in pediatric patients under treatment with a psychotropic drug. The 56 items were rated on a Likert scale with 'none', 'slight', 'moderate', 'severe', and 'extremely severe' responses. The maximal severity on any of the items was considered in this study. […] Additionally, indications for the TDM measurement, detailed information on concomitant medications, nicotine use, weight, and height were also recorded. […] All statistical analyses were performed using R (R Foundation for Statistical Computing) version 4.1.1. The alpha level for all analyses was set to 0.05. To maximize the comparability of the conclusions from the dataset generated in this study, the main analyses were performed with both the last valid timepoint, as in previous relevant studies, and with all the valid timepoints, as detailed in the next paragraph. […] As not all the assumptions were met by the original data, a square-root transformation was applied to the outcome variables. In addition to the simple linear regressions, multiple linear regressions were performed with four additional hypothesized predictors: age (years), sex (male/female), body weight (kg), and smoking status (yes/no). The variance inflation factor (VIF) was evaluated as a measure of multicollinearity. Both regressions were compared based upon model fit. Second, proportional odds models using the clm (cumulative link models) function in the 'ordinal' R package were fitted to examine the serum concentrations as predictors of clinical effects (measured by CGI-I) and adverse effects (measured by PAERS-maximal severity). As there was only a single 'very severe' PAERS response, 'very severe' and 'severe' responses were pooled together. The analyses were repeated with an extended set of hypothesized predictors. For CGI-I, these were age, sex, psychotropic co-medication (i.e., antipsychotic and antidepressant drug), and diagnostic comorbidity (i.e., a single diagnosis versus multiple diagnoses). For PAERS, the predictors were age, sex, and psychotropic co-medication. The proportional odds assumptions in these statistics were verified with likelihood ratio tests using the nominal_test and scale_test functions, while model convergence was tested with the convergence function. […] The clmm (cumulative link mixed models) function from the 'ordinal' package was used to test the impact of metabolite level on clinical and adverse effects with CGI-I and […] […]

[4] = cited from earlier work
CYP2D6 = settings: cited from earlier work
[5] = postmortem studies and case reports; cited from earlier work
patients = test system: patients; parameters: method as in PMID 19723786, PMID 19934760; settings: cited from earlier work
[6] = Responders Transdiagnostic n = 64
[7] = Responders with Depression n = 44

SMILES | Est. of Dose on square-root serum concentration, multiple linear regression [2] | Est. of Body weight on square-root serum concentration, multiple linear regression [2] | Est. of Body weight on square-root serum concentration, linear mixed effect model [2] | Est. of Dose on square-root serum concentration, linear mixed effect model [2] | serum concentration of responders, M+1SD (mean plus 1 standard deviation) [2, 6] [ng/mL] | serum concentration of responders, M-1SD (mean minus 1 standard deviation) [2, 6] [ng/mL] | serum concentration of responders, Q1 (first interquartile) [2, 6] [ng/mL] | serum concentration of responders, Q3 (third interquartile) [2, 6] [ng/mL] | serum concentration of responders, M+1SD (mean plus 1 standard deviation) [2, 7] [ng/mL] | serum concentration of responders, M-1SD (mean minus 1 standard deviation) [2, 7] [ng/mL] | serum concentration of responders, Q1 (first interquartile) [2, 7] [ng/mL] | serum concentration of responders, Q3 (third interquartile) [2, 7] [ng/mL] | β of daily dose on square-root serum concentration, linear mixed-effect model [2] | steady-state serum concentration, range [2] [ng/mL] | mean steady-state serum concentration, mean (SD) [2] [ng/mL] | β of daily dose (mg) on square-root serum concentration, simple linear regression [2] | half-life [4] [h] | binding affinity to CYP2D6 (CYP2D6) | also measured
CNCCC(Oc1ccc(C(F)(F)F)cc1)c1ccccc1 (centres unmarked) [FLX, Fluoxetine] | 0.24 | −0.07 | −0.07 | 0.34 | 191.29 | 57.97 | 73 | 155 | 181.19 | 62.51 | 69.5 | 156.25 | 0.31 | 17 to 396 | 123.66 ± 65.17 | 0.18 | 96 to 140 | high binding affinity | patients with CGI-I 'minimally improved' (children and adolescents [1]; n = 138, FLX 10–40 mg/day): 60 (43.5%); patients with CGI-I 'minimally worse' (children and adolescents [1]; n = 138, FLX 10–40 mg/day): 3 (2.2%); patients with CGI-I 'much worse' (children and adolescents [1]; n = 138, FLX 10–40 mg/day): 2 (1.4%); patients with CGI-I 'no change' (children and adolescents [1]; n = 138, FLX 10–40 mg/day): 8 (5.8%); patients with CGI-I 'very much worse' (children and adolescents [1]; n = 138, FLX 10–40 mg/day): 0 (0%); patients with CGI-I 'minimally improved' (children and adolescents [1]; n = 138, FLX 10–40 mg/day, listed as fluoxetine): 43.5%; patients with marked improvement (children and adolescents [1]; n = 138, much improved plus very much improved): 45.6%; patients with PAERS max. severity 'extremely severe' (children and adolescents [3]): 1 (0.7%); patients with PAERS max. severity 'severe' (children and adolescents [3]): 2 (1.5%); patients with PAERS max. severity 'none' (no adverse effects) (children and adolescents [3]): 87 (64.9%); patients with PAERS max. severity 'none' (no adverse effects) (children and adolescents [3]; listed as fluoxetine): 64.9%; absorption after oral administration [4]: almost completely absorbed; bioavailability ([4]; oral, reduced by hepatic first-pass metabolism): less than 90%; inhibition of CYP2D6 (CYP2D6): potent inhibitor; serum levels in fatal overdoses [5]: 1300 to 7000 ng/mL; patients who do not respond to pharmacologic monotherapy (patients): 40–60%
NCCC(Oc1ccc(C(F)(F)F)cc1)c1ccccc1 (centres unmarked) [NORFLX, Norfluoxetine] | 0.21 | −0.05 | −0.05 | 0.26 | 218.24 | 85.28 | 102.5 | 186 | 223.57 | 78.88 | 98.75 | 184.25 | 0.25 | 21 to 339 | 144.74 ± 65.93 | 0.19 | 96 to 360 | high binding affinity | relationship between serum level and therapeutic effect (CGI-I) (children and adolescents [1]; ordinal regressions): no significant relationship
